Read-outs that look alike come from different tables or passages of the source.
Assays:
Catalepsy assay = conditions: both, Kunming, mouse, in vivo, po
Procedure: (§1) The durations of the mice to maintain the posture with the two forepaws on the bars were recorded, and 30 s of spasticity without moving was considered as the positive response. In the case the forepaws of the mice were not put down persistently, the observation was terminated at 60 s. The numbers of animals with positive response in each of the compound dosage groups were counted.

catalepsy in mice = experiment: Catalepsy assay
Procedure: as §1

[1] = system: MK-801 induced high activity in mice; experiment: MK-801 induced high activity; format: in vivo; conditions: for ED50: Mus musculus, po; for improvement of MK-801 induced high activity (in words): compared with risperidone
Procedure: Ascorbic acid was provided by Sinopharm Chemical Reagent Co. Ltd.
Subsequently, the spontaneous activities of the mice of each group in 90 min were measured.

[2] = system: Apomorphine induced clambering in mice; experiment: Apomorphine induced clambering assay of mice; format: in vivo; conditions: for ED50: Mus musculus, po, read-out: Apomorphine induced clambering (ED50, po, mg/kg); for improvement of apomorphine induced clambering symptoms (in words): compared with risperidone
Procedure: Healthy KM mice, male, with body weight of 18-22 g, were provided by Qinglongshan Animal Cultivation Center, Nanjing.
Apomorphine provided by Sigma Company was dissolved in 0.9% NaCl (containing 0.1% vitamin C) before use, and was freshly formulated before use.
Vitamin C, F20061113, was provided by Sinopharm Chemical Reagent Co. Ltd.
Instruments: self-made clambering cage, chronograph.
Procedures: apomorphine induced clambering assay of mice
After 5 min of adaptation, the behavior of the mice at 10-11, 20-21, and 30-31 min after the injection of apomorphine were observed and scored.

5-HT7 receptor = 5-HT7 receptor (Rattus norvegicus (Rat), UniProt P32305); experiment: 5-HT7 receptor binding assay ([3H]-5-CT); conditions: for Ki: rat hypothalamus membrane, [3H]-5-CT
Procedure: Adult SD rats were decapitated. […] Centrifugation was conducted (repeated 3 times).
(§2) Materials for the Receptor Binding Assay

D2 = D2 (Rattus norvegicus (Rat), UniProt P61169); experiment: D2 receptor binding assay (3H-Spiperone); conditions: read-out: Ki (nM) D2; rat striatum membrane, 3H-Spiperone
Procedure: Rats were decapitated. Striatum of brain was rapidly taken on ice, 3 ml of buffer (0.05 M Tris-HCl buffer, containing NaCl 120 mM, KCl 5 mM, MgCl2 1 mM, CaCl2 1 mM) was added, homogenization was conducted, and then 5 ml of buffer was then added. The weight of the homogenized tubes were adjusted using a balance, and centrifugation was conducted. The supernatant was discarded, and 3 ml of buffer was added. Vortex mixer was used for blending, and then 5 ml of buffer was added. Centrifugation was conducted and repeated 3 times. The supernatant was discarded after centrifugation was completed, and the pellets were stored at −80° C. for future use.
Beckman LS-6500 Multi-function Liquid Scintillation Counter was used.
(1) The prepared membrane was applied with appropriate amount of buffer, and homogenizer was used for evenly dispersing. 15 tubes were mixed into a 100 ml container, and appropriate amount of buffer was added to give 50 ml of membrane suspension, which was reserved for future use.
(§7) (2) 100 μL of membrane preparation and 100 μL of buffer were added into each reaction tube.
(3) 100 μL of buffer was added into the total binding tube (TB), 100 μL of Butaclamol (final concentration 10^−5M) was added into the nonspecific binding tube (NB), 100 μL of the test compound (final concentration 10^−5M) was added into the specific binding tube (SB) of each test compound.
(5) Each of the reaction tubes was incubated at 37° C. for 20 min. After the reaction was completed, the bound ligands were rapidly filtered under reduced pressure, and sufficiently washed with ice-chilled assay buffer. The filter was taken out and put into a 3 ml scintillation vial, and 2 ml of toluene scintillation cocktail was added and blended.
(6) The scintillation vials were put into Liquid Scintillation Counter for counting. Inhibition rate(I%)=(Total binding tube cpm−compound cpm)/(Total binding tube cpm−nonspecific binding tube cpm)×100%
Each assay for the compounds was conducted in duplicate for two individual tests.

5-HT1A = 5-HT1A (Rattus norvegicus (Rat), UniProt P19327); experiment: 5-HT1A receptor binding assay (3H-8-OH-DPAT); conditions: for Ki: rat cortex membrane, 3H-8-OH-DPAT
Procedure: Rats were decapitated. […] Incubation at 37° C. was conducted for 10 min. […] Centrifugation was conducted and repeated 3 times.
as §2

[3] = Acute toxicity study (rats); conditions: both sexes, KM, in vivo, po, 2000 mg/kg; rat, intragastric
Procedure: (§3) Example 41: Acute Toxicity Study
(§4) Limit test of sequential assay: KM rats or mice (half male and half female) were randomly divided into several groups (with 2-5 mice in each group), which were respectively the 2000 mg/kg groups for each compound, and the solvent group. 0.2 ml/10 g were administered intragastrically. The deaths of the animals in 3 days were observed. In the case 3 or more animals survived in 3 days without notable abnormity in their life states, the observation was continued until the assay was completed in 7 days. In the case 3 or more animals died in 3 days, the method of median lethal dose was used to determine the LD50.
(§5) Results: The compound of the invention has relatively low acute toxicity.

[4] = Acute toxicity study (mice); format: in vivo; conditions: both sexes, KM, mouse, in vivo, po, intragastric
Procedure: as §3, §4
(§6) Pre-assay for the method of the median lethal dose: KM mice (half male and half female) were randomly divided into several groups (with 4 mice in each group), which were respectively the 500 mg/kg, 200 mg/kg, 50 mg/kg groups for each compound, and the solvent group. 0.2 ml/10 g were administered intragastrically, and the deaths of the animals in 1-3 days were observed.
as §5

[5] = system: conditioned avoidance response in rats; experiment: animal or person; format: in vivo, rat; conditions: for ED50: po; for Therapeutic index: LD50 versus CAR ED50; for performance in the rat CAR model (in words): compared with risperidone
Procedure: […] of SD rats, male.
Firstly, training the rats with shuttle box:
(1) The rats were allowed for adaption for five minutes;
(2) Conditioned stimulus (CS, light and noise) were started and lasted for 20 s, and at the tenth second, unconditioned stimulus (US, 1.5 mA electric shock) was performed and lasted for 10 s;
(3) Training was conducted 30 times per day for 9 days. The interval between two trainings was set randomly ranged from 20 to 30 s;
(4) Observation indicators:
The animal ran to another compartment during the conditioning stimulus was recorded as “avoidance”;
Animals ran to another compartment during the electric shock was recorded as “escape”;
Grouping of the qualified rats: the qualified rats were divided into negative control group, positive drug groups of each dosage, and compound groups of each dosage according to the principle of randomization, 8 in each group.
Administration Method: Corresponding solvent was administered intragastrically to the negative control group; corresponding dosages of positive drugs were administered intragastrically to the positive drug groups of each dosage; and corresponding dosages of compounds were administered intragastrically to the compound groups of each dosage.
CAR Assay: A CAR assay was performed 1 hour after intragastric administration. The method was the same as the CAR training. The observation indicators were the number of avoidances, the number of escapes, and the number of escape failures.
Statistical Data Processing: Assay data are presented as mean±standard deviation (Mean±SD), the comparison was performed by a combination of one-way ANOVA with post-hoc LSD. The ED50 was calculated using the probit method.

5-HT2A = 5-HT2A (Rattus norvegicus (Rat), UniProt P14842); experiment: 5-HT2A receptor binding assay ([3H]-Ketanserin); conditions: for Ki: read-out: Ki (nM) 5-HT2A, rat cortex membrane, [3H]-Ketanserin
Procedure: Rats were decapitated. Cortex of brain was rapidly taken on ice, and 3 ml of buffer (0.05 M Tris-HCl buffer: 6.05 g of Tris was dissolved in 1000 ml of double-distilled water, and concentrated HCl was used to adjust to pH 7.5) was added, homogenization was conducted, and then 5 ml of buffer was added. Incubation was conducted at 37° C. for 10 min, the weight of the tubes were adjusted using a balance after incubation. Centrifugation was conducted at 12000 rpm, 4° C. for 20 min, the supernatant was discarded, and 3 ml of buffer was added. Vortex mixer was used for blending, and then 5 ml of buffer was added. Centrifugation was conducted (repeated 3 times). After the centrifugation, the supernatant was discarded, and the pellets were stored at −80° C. for future use.
(1) The prepared membrane was applied with buffer, and homogenizer was used for evenly dispersing. 15 tubes were mixed into a 100 ml container, and appropriate amount of buffer was added to give 50 ml of membrane suspension, which was reserved for future use.
as §7
(3) 100 μL of buffer was added into the total binding tube (TB), 100 μL of Methysergide (final concentration 10^−5M) was added into the nonspecific binding tube (NB), 100 μL of the test compound (final concentration 10^−5M) was added into the specific binding tube (SB) of each test compound.
(5) Each of the reaction tubes was incubated at 37° C. for 15 min. After the reaction was completed, the bound ligands were rapidly filtered under reduced pressure, and sufficiently washed with ice-chilled assay buffer. The filter was taken out and put into a 3 ml scintillation vial, and 2 ml of toluene scintillation cocktail was added and blended.
(6) The scintillation vial were put into Liquid Scintillation Counter for counting. Inhibition rate(I%)=(Total binding tube cpm−compound cpm)/(Total binding tube cpm−nonspecific binding tube cpm)×100%

Histamine H1 receptor = Histamine H1 receptor (Cavia porcellus (Guinea pig), UniProt P31389); experiment: Histamine H1 receptor binding assay (3H-pyrilamine); conditions: for Ki: guinea pig cerebellum membrane, 3H-pyrilamine
Procedure: Preparation of Histamine H1 Receptor Membrane
Guinea pigs were decapitated. […] Vortex mixer was used for blending. Centrifugation was conducted at 48000 g, 4° C. for 10 min. The supernatant was discarded to give pellets, and buffer was added again for washing. Centrifugation was conducted and repeated 3 times.
as §2
(2) 100 μL of membrane preparation was added into each reaction tube.

mice = experiment: Acute toxicity study (mice); format: in vivo; conditions: intragastric
Procedure: as §3, §4, §6, §5

[6] = rat, intragastric, 1 hour after administration, read-out: Rat CAR ED50
[7] = both, Kunming (KM), mouse, in vivo

5-HT1A, sequence (P19327 whole entry): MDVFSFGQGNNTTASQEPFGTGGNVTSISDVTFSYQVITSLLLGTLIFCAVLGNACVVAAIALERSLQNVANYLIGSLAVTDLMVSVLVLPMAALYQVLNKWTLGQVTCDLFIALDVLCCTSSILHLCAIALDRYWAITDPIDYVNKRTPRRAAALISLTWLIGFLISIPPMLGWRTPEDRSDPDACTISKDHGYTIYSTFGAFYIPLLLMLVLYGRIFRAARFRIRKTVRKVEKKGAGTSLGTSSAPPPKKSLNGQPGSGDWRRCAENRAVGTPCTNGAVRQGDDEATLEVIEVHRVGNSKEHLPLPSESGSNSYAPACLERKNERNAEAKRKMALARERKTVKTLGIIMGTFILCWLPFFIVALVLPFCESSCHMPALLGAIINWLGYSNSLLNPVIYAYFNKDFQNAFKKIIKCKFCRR
D2, sequence (P61169 whole entry): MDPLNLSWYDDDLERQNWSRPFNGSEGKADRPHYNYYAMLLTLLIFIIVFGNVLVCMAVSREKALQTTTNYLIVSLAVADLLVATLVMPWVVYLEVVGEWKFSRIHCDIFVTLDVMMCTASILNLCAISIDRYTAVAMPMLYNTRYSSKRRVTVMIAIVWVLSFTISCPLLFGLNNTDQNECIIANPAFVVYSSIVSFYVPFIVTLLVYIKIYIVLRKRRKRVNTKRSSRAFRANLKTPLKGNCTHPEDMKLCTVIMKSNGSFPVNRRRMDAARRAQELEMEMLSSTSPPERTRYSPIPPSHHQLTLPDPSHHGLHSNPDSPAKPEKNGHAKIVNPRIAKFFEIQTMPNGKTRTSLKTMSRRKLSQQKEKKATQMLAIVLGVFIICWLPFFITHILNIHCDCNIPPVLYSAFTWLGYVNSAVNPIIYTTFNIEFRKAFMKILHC
5-HT2A, sequence (P14842 whole entry): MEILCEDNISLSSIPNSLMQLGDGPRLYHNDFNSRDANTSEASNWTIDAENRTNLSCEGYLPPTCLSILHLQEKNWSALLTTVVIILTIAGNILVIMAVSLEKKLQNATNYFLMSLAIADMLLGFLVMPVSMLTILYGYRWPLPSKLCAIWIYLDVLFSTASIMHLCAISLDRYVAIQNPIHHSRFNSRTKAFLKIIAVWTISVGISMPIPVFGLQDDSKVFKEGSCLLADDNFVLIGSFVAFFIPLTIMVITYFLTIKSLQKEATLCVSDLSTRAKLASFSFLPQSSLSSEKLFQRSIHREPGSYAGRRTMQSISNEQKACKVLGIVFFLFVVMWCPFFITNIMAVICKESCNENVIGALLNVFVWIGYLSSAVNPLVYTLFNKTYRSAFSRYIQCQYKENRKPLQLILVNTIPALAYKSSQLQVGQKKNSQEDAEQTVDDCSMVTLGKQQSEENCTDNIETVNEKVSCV
5-HT7 receptor, sequence (P32305 whole entry): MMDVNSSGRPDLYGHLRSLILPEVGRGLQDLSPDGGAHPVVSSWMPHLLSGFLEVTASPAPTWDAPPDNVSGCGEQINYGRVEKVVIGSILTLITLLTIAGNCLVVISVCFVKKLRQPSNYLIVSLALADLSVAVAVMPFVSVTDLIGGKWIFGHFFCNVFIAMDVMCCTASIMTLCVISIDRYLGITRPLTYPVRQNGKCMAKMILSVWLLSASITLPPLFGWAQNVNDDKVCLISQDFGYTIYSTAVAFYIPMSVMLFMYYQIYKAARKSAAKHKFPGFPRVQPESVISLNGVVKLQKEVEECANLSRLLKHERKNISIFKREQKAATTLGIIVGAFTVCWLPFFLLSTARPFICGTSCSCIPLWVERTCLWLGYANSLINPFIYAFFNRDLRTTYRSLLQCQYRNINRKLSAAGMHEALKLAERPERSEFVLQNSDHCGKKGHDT
Histamine H1 receptor, sequence (P31389 whole entry): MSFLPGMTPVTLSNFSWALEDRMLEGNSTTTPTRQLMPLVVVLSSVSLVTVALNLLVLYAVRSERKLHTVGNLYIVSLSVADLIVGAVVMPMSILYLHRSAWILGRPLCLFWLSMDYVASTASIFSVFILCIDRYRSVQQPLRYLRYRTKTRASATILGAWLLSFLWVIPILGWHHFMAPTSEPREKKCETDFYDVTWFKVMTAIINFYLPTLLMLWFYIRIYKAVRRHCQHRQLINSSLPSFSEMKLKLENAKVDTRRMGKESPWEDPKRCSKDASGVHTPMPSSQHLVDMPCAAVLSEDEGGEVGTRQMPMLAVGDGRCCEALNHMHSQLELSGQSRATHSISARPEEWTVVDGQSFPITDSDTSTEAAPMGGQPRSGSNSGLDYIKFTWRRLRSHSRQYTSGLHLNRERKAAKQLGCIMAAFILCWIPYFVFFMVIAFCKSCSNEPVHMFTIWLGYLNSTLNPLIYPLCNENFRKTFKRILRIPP

Row | SMILES | ED50 (Catalepsy assay) [mg/kg] | Catalepsy/Apomorphine induced clambering (catalepsy in mice; mice, ratio of ED50 values) | Catalepsy/MK-801 induced high activity (catalepsy in mice; mice, ratio of ED50 values) | ED50 [1] [mg/kg] | ED50 ([2]; mice) [mg/kg] | Ki (5-HT7 receptor) [nM] | Ki (D2) [nM] | Ki (5-HT1A) [nM] | EPS in effective dosage (in words) (catalepsy in mice; mouse, in vivo) | LD50 at 3 days [3] [mg/kg] | LD50 [4] [mg/kg] | ED50 [5, 6] [mg/kg] | Therapeutic index ([5]; rat) | performance in the rat CAR model (in words) ([5]; rat) | improvement of apomorphine induced clambering symptoms (in words) ([2]; mice) | Ki (5-HT2A) [nM] | Ki (Histamine H1 receptor) [nM] | further results
1 | CN1CCN(C2=Nc3cc(Cl)ccc3Nc3ccccc32)CC1 [clozapine, reference compound] | > 50 | >5.58 | >21.93 | 2.28 | 17.9 | – | – | – | – | – | – | – | – | – | – | – | – | –
2 | COc1ccccc1N1CCN(CCCOc2ccc3c(c2)C(=O)N(C)CC3)CC1 [Compound 22, 7-(3-(4-(2-methoxyphenyl)piperazin-1-yl)propoxy)-2-methyl-3,4-dihydroisoquinolin-1(2H)-one] | 52 | 273 | 433 | 0.12 | 0.19 | 28.1 | 9.6 | 6.5 | do not cause EPS | 198 | 311 | 0.49 | 404 | markedly better than risperidone | effectively improve | 3.2 | > 2000 | improvement of MK-801 induced high activity (in words) [1]: significantly improve
3 | CN1CCc2ccc(OCCCN3CCN(c4ncccn4)CC3)cc2C1=O [Compound 24, 2-methyl-7-(3-(4-(pyrimidin-2-yl)piperazin-1-yl)propoxy)-3,4-dihydroisoquinolin-1(2H)-one] | 47 | 214 | 261 | 0.18 | 0.22 | 9.9 | 11.9 | 8.8 | – | 146 | 190 | 1.02 | 143 | – | – | 7.5 | > 2000 | –
4 | Cc1nc2n(c(=O)c1CCN1CCC(c3noc4cc(F)ccc34)CC1)CCCC2 [risperidone, reference compound] | – | – | – | – | – | – | – | – | – | 113 | – | – | – | – | – | – | – | –
5 | O=C(CCCN1CCC(O)(c2ccc(Cl)cc2)CC1)c1ccc(F)cc1 [haloperidol, reference compound] | 0.44 | 4.89 | 4.40 | 0.1 | 0.08 | – | – | – | – | – | – | – | – | – | – | – | – | –
6 | CN1CCc2ccc(OCCCN3CCN(c4nsc5ccccc45)CC3)cc2C1=O [Compound 14, 7-(3-(4-(benzo[d]isothiazol-3-yl)piperazin-1-yl)propoxy)-2-methyl-3,4-dihydroisoquinolin-1(2H)-one] | 32 | 533 | 457 | 0.07 | 0.06 | 16.8 | 6.9 | 8.8 | do not cause EPS | 155 | 202 | 0.65 | 238 | markedly better than risperidone | effectively improve | 7.2 | 1360 | improvement of MK-801 induced high activity (in words) [1]: significantly improve
7 | CC1CN(C)C(=O)c2cc(OCCCN3CCC(c4noc5cc(F)ccc45)CC3)ccc21 (stereo not drawn) [Compound 10, 7-(3-(4-(6-fluorobenzo[d]isoxazol-3-yl)piperidin-1-yl)propoxy)-2,4-dimethyl-3,4-dihydroisoquinolin-1(2H)-one] | – | – | – | – | – | 8.4 | 5.8 | 4.6 | – | – | – | – | – | – | – | 12.9 | > 2000 | –
8 | CN1CCc2ccc(OCCCN3CCC(c4noc5cc(F)ccc45)CC3)cc2C1=O [Compound 5, 7-(3-(4-(6-fluorobenzo[d]isoxazol-3-yl)piperidin-1-yl)propoxy)-2-methyl-3,4-dihydroisoquinolin-1(2H)-one] | 35 | – | – | – | – | 5.9 | – | 2.4 | do not cause EPS | 168 | 258 | – | – | markedly better than risperidone | effectively improve | 0.1 | > 2000 | affinity for 5HT7 (in words) (5-HT7 receptor): high affinity; affinity for 5-HT1A (in words) (5-HT1A): strong affinities; Catalepsy/Apomorphine induced clambering (catalepsy in mice; [7]): 700; Catalepsy/MK-801 induced high activity (catalepsy in mice; [7]): 875; LD50 (po, mg/kg) (mice): 257 mg/kg; ED50 ([5]; Rattus norvegicus, 1 h, read-out: Rat CAR ED50 (mg/kg)): 0.32 mg/kg; ED50 [2]: 0.05 mg/kg; affinity for 5-HT2A (in words) (5-HT2A): strong affinities; affinity for H1 (in words) (Histamine H1 receptor): low affinity
9 | CCN1CCc2ccc(OCCCN3CCC(c4noc5cc(F)ccc45)CC3)cc2C1=O [Compound 7, 7-(3-(4-(6-fluorobenzo[d]isoxazol-3-yl)piperidin-1-yl)propoxy)-2-ethyl-3,4-dihydroisoquinolin-1(2H)-one] | – | – | – | – | – | 12.7 | 13.1 | 1.9 | – | – | – | – | – | – | – | 0.9 | > 2000 | –

Reference: patent US10501452B2, “Lactam compound derivative and application thereof” (NHWA PHARMA. CORPORATION, priority 2015, dated 2019)
